Assay results: patent US6379692B1, “Pharmaceutical composition comprising a suspension for the active ingredient” (Chauvin Pharmaceuticals Limited, priority 1997, dated 2002)

Assay: particle size by Coulter counter (100 μm tube)
Type: physicochemical
Settings: without the use of a viscosity-enhancing agent
Text: (iii) bringing the salt solution, the aqueous suspension or dispersion and the acid into admixture whereby there is formed a precipitate of microparticles of the active ingredient wherein 90% of the microparticles are of a diameter less than about 10 μm (number) when measured by a Coulter counter (100 μm tube).
Step (iii) may be undertaken by first bringing the salt solution into admixture with the aqueous suspension or dispersion followed by addition of the acid. However, preferably, the acid is added to the aqueous suspension/dispersion prior to addition thereto of the salt solution. Preferably, more base is then added to the suspension to neutralize the hydrophilic polymer(s). […]
However, in contrast to when pre-micronized active ingredient is used, the process of the present invention whereby such fine particles are produced in situ by precipitation results in a better distribution of particle size, with the D90 at room temperature being of the order of 5-10 μm (number), preferably 7-9 μm (number) or 10-16 μm (volume), whereas for pre-micronized drug the D90 is of the order of 5-10 μm (number) or 21-24 μm (volume). […] The term “D90” as used herein with respect to particle size distribution means that 90% of the particles have a diameter, when measured by a Coulter counter (100 μm tube), of less than the quoted figure. […]

In the case of `Nc1nc2c(ncn2COCCO)c(=O)[nH]1` [aciclovir, 2-amino-1,9-dihydro-9-[(2-hydroxyethoxy)methyl]6H-purin-6-one], the “length of needle-shaped crystals precipitated” value is reported as “greater than 30 μm”.
